The record followed here is patent publication US20260125346A1, “Isoquinolinone Derivatives and 4H-Quinolizinone Derivatives and Pharmaceutical Compositions Thereof for the Treatment of Disease” (BeOne Medicines I GmbH, priority 2023, published 2026).

In assay [1] the target is PI3Kα (p110[H1047R]/p85) kinase (Homo sapiens, UniProt P42336, H1047R). In words: PI3Kα (p110[H1047R]/p85) kinase ADP-Glo Assay. Format: biochemical. The conditions noted are these: 25 uM ATP; for selectivity: WT/H1047R: ADP-Glo Assay IC50 ratio. On the procedure: PI3Kα (p110[H1047R]/p85) kinase ADP-Glo Assay. Certain compounds disclosed herein were tested for inhibition of PI3Kα (p110[H1047R]/p85) kinase in assays based on the ADP-Glo™ Kinase Assay methodology. The assays were carried out in 384-well white plates in a reaction mixture containing PI3Kα (p110[H1047R]/p85) kinase, 25 µM ATP, 5.35 µg/ml PI(4,5)P2:PS Lipid Kinase Substrate and […] compound in buffer containing 50 mM HEPES pH7.5, 50 mM NaCl, 3 mM MgCl2, 0.0025% BSA and 2 mM DTT. PI3Kα (p110[H1047R]/p85) kinase was incubated with Lipid Kinase Substrate and compound for 30 minutes at room temperature and the reaction was initiated by the addition of ATP.
Sequence of PI3Kα (p110[H1047R]/p85) kinase (P42336 whole entry H1047R): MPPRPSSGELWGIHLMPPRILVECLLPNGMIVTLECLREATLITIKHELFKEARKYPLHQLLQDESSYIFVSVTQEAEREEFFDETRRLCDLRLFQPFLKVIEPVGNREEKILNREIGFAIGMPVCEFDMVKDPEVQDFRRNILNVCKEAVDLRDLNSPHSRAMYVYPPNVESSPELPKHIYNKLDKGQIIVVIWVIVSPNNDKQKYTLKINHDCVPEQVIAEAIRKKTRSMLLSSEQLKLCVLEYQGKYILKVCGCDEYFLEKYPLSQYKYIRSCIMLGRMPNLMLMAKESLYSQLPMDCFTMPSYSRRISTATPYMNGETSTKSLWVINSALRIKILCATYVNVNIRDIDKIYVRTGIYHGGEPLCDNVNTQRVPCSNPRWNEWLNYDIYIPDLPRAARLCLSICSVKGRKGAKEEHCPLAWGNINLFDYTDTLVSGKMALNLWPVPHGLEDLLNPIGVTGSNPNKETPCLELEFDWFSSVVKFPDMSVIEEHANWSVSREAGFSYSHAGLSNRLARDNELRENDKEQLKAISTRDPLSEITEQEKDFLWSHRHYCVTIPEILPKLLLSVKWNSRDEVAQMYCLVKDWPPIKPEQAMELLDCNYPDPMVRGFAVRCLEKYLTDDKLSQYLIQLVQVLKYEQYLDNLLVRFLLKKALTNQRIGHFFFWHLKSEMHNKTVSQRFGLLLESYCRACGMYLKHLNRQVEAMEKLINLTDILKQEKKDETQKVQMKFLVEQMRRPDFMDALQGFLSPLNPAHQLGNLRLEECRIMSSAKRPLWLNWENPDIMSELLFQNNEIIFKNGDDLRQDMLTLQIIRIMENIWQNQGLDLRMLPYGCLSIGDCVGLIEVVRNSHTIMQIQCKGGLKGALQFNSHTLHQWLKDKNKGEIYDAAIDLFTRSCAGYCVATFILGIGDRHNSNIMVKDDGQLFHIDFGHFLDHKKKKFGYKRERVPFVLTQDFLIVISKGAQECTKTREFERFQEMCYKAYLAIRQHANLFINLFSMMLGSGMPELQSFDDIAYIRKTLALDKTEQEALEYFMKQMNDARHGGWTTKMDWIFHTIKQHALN
Sequence of PI3Kα (p110[H1047R]/p85) kinase (P27986 whole entry partner): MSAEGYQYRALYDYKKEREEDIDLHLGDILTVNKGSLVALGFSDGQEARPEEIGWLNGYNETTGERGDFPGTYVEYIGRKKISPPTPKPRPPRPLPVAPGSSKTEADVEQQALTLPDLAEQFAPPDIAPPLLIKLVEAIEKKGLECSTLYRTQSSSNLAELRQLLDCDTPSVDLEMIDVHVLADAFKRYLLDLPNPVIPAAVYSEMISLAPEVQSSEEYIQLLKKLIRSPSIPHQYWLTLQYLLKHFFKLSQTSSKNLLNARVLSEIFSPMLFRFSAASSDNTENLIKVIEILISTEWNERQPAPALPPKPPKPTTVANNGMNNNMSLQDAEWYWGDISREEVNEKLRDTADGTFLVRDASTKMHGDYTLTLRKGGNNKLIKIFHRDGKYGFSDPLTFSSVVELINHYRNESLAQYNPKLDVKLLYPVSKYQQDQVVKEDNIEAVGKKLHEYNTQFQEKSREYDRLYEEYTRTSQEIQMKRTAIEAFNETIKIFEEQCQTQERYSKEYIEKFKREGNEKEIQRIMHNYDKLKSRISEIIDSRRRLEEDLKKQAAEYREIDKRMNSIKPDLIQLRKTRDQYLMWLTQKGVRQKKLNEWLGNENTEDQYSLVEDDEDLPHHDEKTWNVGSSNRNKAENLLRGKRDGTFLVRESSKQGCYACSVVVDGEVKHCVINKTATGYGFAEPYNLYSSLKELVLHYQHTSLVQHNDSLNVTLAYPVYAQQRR
After reaction at room temperature for 120 minutes, ADP-Glo™ reagents were added to terminate the kinase reaction and deplete the remaining ATP according to the manufacture's instruction (Promega Corporation). After incubation at room temperature for 1 hour, Kinase Detection Reagent (prepared by reconstituting the lyophilized Kinase Detection Substrate with Kinase Detection Buffer of the kit) was added to convert the ADP to ATP and to allow for the newly synthesized ATP to be measured using a luciferase/luciferin reaction. After incubation at room temperature for 0.5 hour, chemiluminescence signals were recorded on a PHERAstar FSX plate reader (BMG Labtech). The chemiluminescence generated in this assay correlates to the amount of ADP generated in the kinase assay, indicating kinase activity. […] The IC50 for each compound was derived from fitting the data to the four-parameter logistic equation by Dotmatics.
For orientation: In ADP-Glo the light output rises with the ADP produced.

In assay [2] the test system is WT cell line SK-BR-3. In words: Cell Proliferation Assay (CellTiter-Glo), SK-BR-3. It counts as cell-based. The conditions noted are these: Homo sapiens, 72 h; SK-BR-3, 3 days treatment. On the procedure: The SK-BR-3 (ATCC, HTB-30) cell line was obtained from the American Type Culture Collection. Cells were maintained in McCoy' 5A medium (Gibco, REF #16600108) supplemented with 10% Fetal Bovine Serum. Cultures were maintained in a humidified incubator at 37° C. under 5% CO2/95% air.
Cell Proliferation Assay. PI3Kα H1047R mutated cell line T-47D cells and WT cell line SK-BR-3 were seeded at a density of 3×10^3 cells per well in 96 well plate (Xinyou Biotechnology, 062096) in 95 μL of culture medium, overnight. Compounds dissolved in 10 mM stock solutions in DMSO were serially diluted 1:3 in DMSO to generate a 9-point dilution series and plated using an INTEGRA ASSIST Plus pipetting robot. A 20× intermediate compound dilution plate in RPMI1640 medium (200 M starting compound concentration in 2% DMSO) was then prepared. Five μL of intermediate serially diluted compounds were added to the cell plate to final concentrations ranging from […] to 1 nM in 0.1% DMSO. 0.1% DMSO alone was used to establish the maximum signal and medium without cells was for minimum signal. After 3 days treatment, equilibrated the plate and its contents at room temperature for approximately 30 minutes. Added 30 μL CellTiter-Glo® Reagent (Promega, REF #G7571) to each well. Then mixed contents for 5 min on plate shaker to induce cell lysis. Incubated at room temperature for 10 minutes to stabilize luminescent signal. The plates were read on PHERAstar FSX Microplate reader using standard luminescence settings.
Relative IC50 values were determined using luminescence units by calculating percent inhibition with respect to the in-plate “MIN” (medium only) and “MAX” (0.1% DMSO) controls. The data were analyzed using a 4-parameter nonlinear logistic equation (four-parameter logistic concentration-response curve): Y=bottom+[(top−bottom)/1+(X/IC50) slope] • where Y=% inhibition, X=concentration of inhibitor, bottom=minimum value of y attained by curve-fit, top=maximum value of y attained by curve-fit and slope=steepness of curve at the IC50.
In general terms: Cellular ATP, detected with luciferase, serves as a proxy for viable cell number.

Broadly, the IC50 is the point on the concentration scale where inhibition reaches its midpoint. Lower therefore signals inhibition by little substance. As for `Cc1cc(C(C)Nc2ccccc2C(=O)O)c2cc(-c3ccccc3)n(C)c(=O)c2c1` (stereo not drawn) [Example 1, 2-((1-(2,7-dimethyl-1-oxo-3-phenyl-1,2-dihydroisoquinolin-5-yl)ethyl)amino)benzoic acid], in assay [1], the IC50 is 170 nM and the “selectivity: WT/H1047R” value turned out to be 16.3. In addition, the IC50 in assay [2] was over 10000 nM.

Turning to `Cc1cc(C(C)Nc2ccccc2C(=O)O)c2cc(-c3ccccc3C)n(C)c(=O)c2c1` (stereo not drawn) [Example 2, 2-((1-(2,7-dimethyl-1-oxo-3-(o-tolyl)-1,2-dihydroisoquinolin-5-yl)ethyl)amino)benzoic acid], in assay [1], the IC50 is 161 nM and the “selectivity: WT/H1047R” value amounted to 139.3. This compound also showed an IC50 in assay [2] of over 10000 nM.

On to `Cc1cc(C(C)Nc2ccccc2C(=O)O)c2cc(-c3cccc(C#N)c3)n(C)c(=O)c2c1` (stereo not drawn) [Example 3, 2-((1-(3-(3-cyanophenyl)-2,7-dimethyl-1-oxo-1,2-dihydroisoquinolin-5-yl)ethyl)amino)benzoic acid], for which, in assay [1], the IC50 was 671 nM and the “selectivity: WT/H1047R” value turned out to be 14.7. The compound also showed an IC50 in assay [2] of over 10000 nM.

In the case of `Cc1cc(C(C)Nc2ccccc2C(=O)O)c2cc(-c3cccc(C(C)(C)C#N)c3)n(C)c(=O)c2c1` (stereo not drawn) [Example 5, 2-((1-(3-(3-(2-cyanopropan-2-yl)phenyl)-2,7-dimethyl-1-oxo-1,2-dihydroisoquinolin-5-yl)ethyl)amino)benzoic acid], in assay [1], half-maximal inhibition (IC50) was put at 375 nM and the “selectivity: WT/H1047R” value is listed as 14.1. Further, the IC50 in assay [2] was over 10000 nM.

As to `Cc1cc(C(C)Nc2ccccc2C(=O)O)c2cc(-c3ccccc3F)n(C)c(=O)c2c1` (stereo not drawn) [Example 6, 2-((1-(3-(2-fluorophenyl)-2,7-dimethyl-1-oxo-1,2-dihydroisoquinolin-5-yl)ethyl)amino)benzoic acid], the figures for the IC50 in assay [1] and in assay [2] were 162 nM and over 10000 nM, respectively. Further, the “selectivity: WT/H1047R” value in assay [1] was 17.8.

As for `Cc1cc(C(C)Nc2ccccc2C(=O)O)c2cc(-c3cccc(F)c3)n(C)c(=O)c2c1` (stereo not drawn) [Example 7, 2-((1-(3-(3-fluorophenyl)-2,7-dimethyl-1-oxo-1,2-dihydroisoquinolin-5-yl)ethyl)amino)benzoic acid], in assay [1], the IC50 was 164 nM and the “selectivity: WT/H1047R” value is 15.3. For the same compound, the IC50 in assay [2] is over 10000 nM.

As to `Cc1cc(C(C)Nc2ccccc2C(=O)O)c2cc(-c3ccc(F)cc3)n(C)c(=O)c2c1` (stereo not drawn) [Example 8, 2-((1-(3-(4-fluorophenyl)-2,7-dimethyl-1-oxo-1,2-dihydroisoquinolin-5-yl)ethyl)amino)benzoic acid], the IC50 in assay [1] is 183 nM; in assay [2], over 10000 nM. Further, the “selectivity: WT/H1047R” value in assay [1] turned out to be 32.6.

On to `Cc1cc(C(C)Nc2ccccc2C(=O)O)c2cc(-c3ccc(F)c(F)c3)n(C)c(=O)c2c1` (stereo not drawn) [Example 9, 2-((1-(3-(3,4-difluorophenyl)-2,7-dimethyl-1-oxo-1,2-dihydroisoquinolin-5-yl)ethyl)amino)benzoic acid], for which the figures for the 50% inhibitory concentration (IC50) in assay [1] and in assay [2] were 187 nM and over 10000 nM, respectively. In addition, in assay [1], the “selectivity: WT/H1047R” value is 14.5.

In the case of `Cc1cc(C(C)Nc2ccccc2C(=O)O)c2cc(-c3cc(F)cc(F)c3)n(C)c(=O)c2c1` (stereo not drawn) [Example 10, 2-((1-(3-(3,5-difluorophenyl)-2,7-dimethyl-1-oxo-1,2-dihydroisoquinolin-5-yl)ethyl)amino)benzoic acid], the half-inhibitory concentration (IC50) in assay [1] is 224 nM; in assay [2], over 10000 nM. Further, the “selectivity: WT/H1047R” value in assay [1] stood at 36.1.

For the compound `Cc1cc(C(C)Nc2ccccc2C(=O)O)c2cc(-c3ccc(F)cc3F)n(C)c(=O)c2c1` (stereo not drawn) [Example 11, 2-((1-(3-(2,4-difluorophenyl)-2,7-dimethyl-1-oxo-1,2-dihydroisoquinolin-5-yl)ethyl)amino)benzoic acid], the IC50 in assay [1] is 210 nM; in assay [2] it was over 10000 nM. For the same compound, the “selectivity: WT/H1047R” value in assay [1] is reported as 100.2.

Turning to `Cc1cc(C(C)Nc2ccccc2C(=O)O)c2cc(-c3cccc(F)c3F)n(C)c(=O)c2c1` (stereo not drawn) [Example 12, 2-((1-(3-(2,3-difluorophenyl)-2,7-dimethyl-1-oxo-1,2-dihydroisoquinolin-5-yl)ethyl)amino)benzoic acid], in assay [1], half-maximal inhibition (IC50) required 175 nM and the “selectivity: WT/H1047R” value is recorded as 38.2. The IC50 in assay [2] is over 10000 nM.

Consider `COc1cccc(-c2cc3c(C(C)Nc4ccccc4C(=O)O)cc(C)cc3c(=O)n2C)c1` (stereo not drawn) [Example 13, 2-((1-(3-(3-methoxyphenyl)-2,7-dimethyl-1-oxo-1,2-dihydroisoquinolin-5-yl)ethyl)amino)benzoic acid], for which, in assay [1], the IC50 is 192 nM and the “selectivity: WT/H1047R” value is on record as 30.3. This compound showed an IC50 in assay [2] of over 10000 nM.

In the case of `COc1ccc(-c2cc3c(C(C)Nc4ccccc4C(=O)O)cc(C)cc3c(=O)n2C)cc1` (stereo not drawn) [Example 14, 2-((1-(3-(4-methoxyphenyl)-2,7-dimethyl-1-oxo-1,2-dihydroisoquinolin-5-yl)ethyl)amino)benzoic acid], the results for the IC50 in assay [1] and in assay [2] were 156 nM and over 10000 nM, respectively. In assay [1], the “selectivity: WT/H1047R” value amounted to 23.9.

On to `COc1ccc(-c2cc3c(C(C)Nc4ccccc4C(=O)O)cc(C)cc3c(=O)n2C)cn1` (stereo not drawn) [Example 15, 2-((1-(3-(6-methoxypyridin-3-yl)-2,7-dimethyl-1-oxo-1,2-dihydroisoquinolin-5-yl)ethyl)amino)benzoic acid], for which, in assay [1], the IC50 amounted to 858 nM and the “selectivity: WT/H1047R” value was 8.0. Moreover, in assay [2], the IC50 was over 10000 nM.

Regarding `Cc1cc(C(C)Nc2ccccc2C(=O)O)c2cc(-c3cnn(-c4ccc(C(N)=O)cn4)c3)n(C)c(=O)c2c1` (stereo not drawn) [Example 16, 2-((1-(3-(1-(5-carbamoylpyridin-2-yl)-1H-pyrazol-4-yl)-2,7-dimethyl-1-oxo-1,2-dihydroisoquinolin-5-yl)ethyl)amino)benzoic acid], in assay [1], the midpoint of inhibition, the IC50, lay at 240 nM and the “selectivity: WT/H1047R” value came to 15.3. For the same compound, in assay [2], the IC50 is over 10000 nM.

For `Cc1cc(C(C)Nc2ccccc2C(=O)O)c2cc(-c3nc4ccccc4s3)n(C)c(=O)c2c1` (stereo not drawn) [Example 17, 2-((1-(3-(benzo[d]thiazol-2-yl)-2,7-dimethyl-1-oxo-1,2-dihydroisoquinolin-5-yl)ethyl)amino)benzoic acid], the figures for the IC50 in assay [1] and in assay [2] were 255 nM and over 10000 nM, respectively. For the same compound, in assay [1], the “selectivity: WT/H1047R” value is on record as 30.5.

In the case of `Cc1cc(C(C)Nc2ccccc2C(=O)O)c2cc(-c3ccc4nc(C)sc4c3)n(C)c(=O)c2c1` (stereo not drawn) [Example 18, 2-((1-(2,7-dimethyl-3-(2-methylbenzo[d]thiazol-6-yl)-1-oxo-1,2-dihydroisoquinolin-5-yl)ethyl)amino)benzoic acid], in assay [1], the IC50 came to 272 nM and the “selectivity: WT/H1047R” value came to 16.1. This compound came in with an IC50 in assay [2] of over 10000 nM.

In the case of `Cc1cc(C(C)Nc2ccccc2C(=O)O)c2cc(-c3ccc4nn(C)cc4c3)n(C)c(=O)c2c1` (stereo not drawn) [Example 19, 2-((1-(2,7-dimethyl-3-(2-methyl-2H-indazol-5-yl)-1-oxo-1,2-dihydroisoquinolin-5-yl)ethyl)amino)benzoic acid], the values for the IC50 in assay [1] and in assay [2] were 311 nM and over 10000 nM, respectively. Moreover, the “selectivity: WT/H1047R” value in assay [1] is given as 21.1.

On to `CC(Nc1ccccc1C(=O)O)c1cccc2c(=O)n(C)c(-c3ccccc3)cc12` (stereo not drawn) [Example 20, 2-((1-(2-methyl-1-oxo-3-phenyl-1,2-dihydroisoquinolin-5-yl)ethyl)amino)benzoic acid], for which, in assay [1], the IC50 was 93 nM and the “selectivity: WT/H1047R” value worked out at 108.4. This compound yielded an IC50 in assay [2] of over 10000 nM.
